Values quoted from earlier work, collected in PMC7670640 (Pharmacology Research & Perspectives, 2020).

Conditions: prior terminated phase IIb clinical trial; cited from earlier work

## C=C(C)[C@@H]1CC[C@]2(NCCN3CCS(=O)(=O)CC3)CC[C@]3(C)[C@H](CC[C@@H]4[C@@]5(C)CC=C(c6ccc(C(=O)O)cc6)C(C)(C)[C@@H]5CC[C@]43C)[C@@H]12 [GSK3532795]
  GI intolerability: GI intolerability (predominantly abdominal pain and diarrhea)
